Legend:
Assay type in all cases: in vivo
[1] = tested on: redroot pigweed (Amaranthus retroflexus); assay: Test G Pre-Emergence Protocol; conditions: Amaranthus retroflexus, pre-emergence, 312 h, evaluated after 13 days; for pest or weed control at 15.625 g/ha: 15.625 g ai/ha; for pest or weed control at 15.625 g/ha / pest or weed control at 250 g/ha: read-out: Pigweed, Redroot damage rating (100=total damage to plant; 0=no damage to plant); for pest or weed control at 62.5 g/ha: 62.5 g ai/ha, 100=total damage to plant, 0=no damage to plant, read-out: Pigweed, Redroot damage rating; for pest or weed control at 250 g/ha: 250 g ai/ha
Summary of the method: (§1)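 Herbicidal effect was rated 13 days post-application on a scale where 100 equals total damage. Spraying took place the day after sowing, using 15.625, 62.5 or 250 g/ha of compound in a 50:50 acetone/water solution with 0.5% Tween 20.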

[2] = tested on: velvetleaf (Abutilon theophrasti); assay: Test G Pre-Emergence Protocol; conditions: Abutilon theophrasti, pre-emergence, 312 h, evaluated after 13 days; for pest or weed control at 15.625 g/ha: 15.625 g ai/ha; for pest or weed control at 15.625 g/ha / pest or weed control at 250 g/ha: read-out: Velvetleaf damage rating (100=total damage to plant; 0=no damage to plant); for pest or weed control at 62.5 g/ha: 62.5 g ai/ha, 100=total damage to plant, 0=no damage to plant, read-out: Velvetleaf damage rating; for pest or weed control at 250 g/ha: 250 g ai/ha
Summary of the method: as §1

[3] = tested on: ivy-leaved morning glory (Ipomoea hederacea); assay: Test G Pre-Emergence Protocol; conditions: Ipomoea, pre-emergence, 312 h, evaluated after 13 days; for pest or weed control at 15.625 g/ha: 15.625 g ai/ha; for pest or weed control at 15.625 g/ha / pest or weed control at 250 g/ha: read-out: Morningglory, Ivy-leaved damage rating (100=total damage to plant; 0=no damage to plant); for pest or weed control at 62.5 g/ha: 62.5 g ai/ha, 100=total damage to plant, 0=no damage to plant, read-out: Morningglory, Ivy-leaved damage rating; for pest or weed control at 250 g/ha: 250 g ai/ha
Summary of the method: as §1

[4] = tested on: giant foxtail (Setaria faberi); assay: Test G Pre-Emergence Protocol; conditions: Setaria faberi, pre-emergence, 312 h, evaluated after 13 days; for pest or weed control at 15.625 g/ha: 15.625 g ai/ha; for pest or weed control at 15.625 g/ha / pest or weed control at 250 g/ha: read-out: Foxtail, Giant damage rating (100=total damage to plant; 0=no damage to plant); for pest or weed control at 62.5 g/ha: 62.5 g ai/ha, 100=total damage to plant, 0=no damage to plant, read-out: Foxtail, Giant damage rating; for pest or weed control at 250 g/ha: 250 g ai/ha
Summary of the method: as §1

[5] = tested on: corn (Zea mays); assay: Test G Pre-Emergence Protocol; conditions: Zea mays, pre-emergence, 312 h, evaluated after 13 days; for plant injury at 15.625 g/ha: 15.625 g ai/ha; for plant injury at 15.625 g/ha / plant injury at 250 g/ha: read-out: Corn damage rating (100=total damage to plant; 0=no damage to plant); for plant injury at 62.5 g/ha: 62.5 g ai/ha, 100=total damage to plant, 0=no damage to plant, read-out: Corn damage rating; for plant injury at 250 g/ha: 250 g ai/ha
Summary of the method: as §1

[6] = tested on: barnyardgrass (Echinochloa crus-galli); assay: Test G Pre-Emergence Protocol; conditions: Echinochloa crus-galli, pre-emergence, 312 h, evaluated after 13 days; for pest or weed control at 15.625 g/ha: 15.625 g ai/ha; for pest or weed control at 15.625 g/ha / pest or weed control at 250 g/ha: read-out: Barnyardgrass damage rating (100=total damage to plant; 0=no damage to plant); for pest or weed control at 62.5 g/ha: 62.5 g ai/ha, 100=total damage to plant, 0=no damage to plant, read-out: Barnyardgrass damage rating; for pest or weed control at 250 g/ha: 250 g ai/ha
Summary of the method: as §1

[7] = tested on: redroot pigweed (Amaranthus retroflexus); assay: Test G Post-Emergence Protocol; conditions: Amaranthus retroflexus, post-emergence, 312 h, read-out: Pigweed, Redroot damage rating; for pest or weed control at 15.625 g/ha: 15.625 g ai/ha, evaluated after 13 days (100=total damage to plant; 0=no damage to plant); for pest or weed control at 62.5 g/ha: 62.5 g ai/ha; for pest or weed control at 62.5 g/ha / pest or weed control at 250 g/ha: evaluated after 13 days, 100=total damage to plant, 0=no damage to plant; for pest or weed control at 250 g/ha: 250 g ai/ha
Summary of the method: (§2)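 Eight days post-sowing, plants received a spray of test compound (acetone/water 50:50, 0.5% Tween 20) at 15.625, 62.5 or 250 g/ha. Glasshouse regime thereafter: 24/16 °C, 14 h light, 65% humidity. Assessment after 13 days on a 0–100 damage scale.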

[8] = tested on: velvetleaf (Abutilon theophrasti); assay: Test G Post-Emergence Protocol; conditions: Abutilon theophrasti, post-emergence, 312 h, read-out: Velvetleaf damage rating; for pest or weed control at 15.625 g/ha: 15.625 g ai/ha, evaluated after 13 days (100=total damage to plant; 0=no damage to plant); for pest or weed control at 62.5 g/ha: 62.5 g ai/ha; for pest or weed control at 62.5 g/ha / pest or weed control at 250 g/ha: evaluated after 13 days, 100=total damage to plant, 0=no damage to plant; for pest or weed control at 250 g/ha: 250 g ai/ha
Summary of the method: as §2

[9] = tested on: ivy-leaved morning glory (Ipomoea hederacea); assay: Test G Post-Emergence Protocol; conditions: Ipomoea, post-emergence, 312 h, read-out: Morningglory, Ivy-leaved damage rating; for pest or weed control at 15.625 g/ha: 15.625 g ai/ha, evaluated after 13 days (100=total damage to plant; 0=no damage to plant); for pest or weed control at 62.5 g/ha: 62.5 g ai/ha; for pest or weed control at 62.5 g/ha / pest or weed control at 250 g/ha: evaluated after 13 days, 100=total damage to plant, 0=no damage to plant; for pest or weed control at 250 g/ha: 250 g ai/ha
Summary of the method: as §2

[10] = tested on: giant foxtail (Setaria faberi); assay: Test G Post-Emergence Protocol; conditions: Setaria faberi, post-emergence, 312 h, read-out: Foxtail, Giant damage rating; for pest or weed control at 15.625 g/ha: 15.625 g ai/ha, evaluated after 13 days (100=total damage to plant; 0=no damage to plant); for pest or weed control at 62.5 g/ha: 62.5 g ai/ha; for pest or weed control at 62.5 g/ha / pest or weed control at 250 g/ha: evaluated after 13 days, 100=total damage to plant, 0=no damage to plant; for pest or weed control at 250 g/ha: 250 g ai/ha
Summary of the method: as §2

[11] = tested on: corn (Zea mays); assay: Test G Post-Emergence Protocol; conditions: Zea mays, post-emergence, 312 h, read-out: Corn damage rating; for plant injury at 15.625 g/ha: 15.625 g ai/ha, evaluated after 13 days (100=total damage to plant; 0=no damage to plant); for plant injury at 62.5 g/ha: 62.5 g ai/ha; for plant injury at 62.5 g/ha / plant injury at 250 g/ha: evaluated after 13 days, 100=total damage to plant, 0=no damage to plant; for plant injury at 250 g/ha: 250 g ai/ha
Summary of the method: as §2

[12] = tested on: barnyardgrass (Echinochloa crus-galli); assay: Test G Post-Emergence Protocol; conditions: Echinochloa crus-galli, post-emergence, 312 h, read-out: Barnyardgrass damage rating; for pest or weed control at 15.625 g/ha: 15.625 g ai/ha, evaluated after 13 days (100=total damage to plant; 0=no damage to plant); for pest or weed control at 62.5 g/ha: 62.5 g ai/ha; for pest or weed control at 62.5 g/ha / pest or weed control at 250 g/ha: evaluated after 13 days, 100=total damage to plant, 0=no damage to plant; for pest or weed control at 250 g/ha: 250 g ai/ha
Summary of the method: as §2

| SMILES | pest or weed control at 15.625 g/ha [1] | pest or weed control at 62.5 g/ha [1] | pest or weed control at 250 g/ha [1] | pest or weed control at 15.625 g/ha [2] | pest or weed control at 62.5 g/ha [2] | pest or weed control at 250 g/ha [2] | pest or weed control at 15.625 g/ha [3] | pest or weed control at 62.5 g/ha [3] | pest or weed control at 250 g/ha [3] | pest or weed control at 15.625 g/ha [4] | pest or weed control at 62.5 g/ha [4] | pest or weed control at 250 g/ha [4] | plant injury at 15.625 g/ha [5] | plant injury at 62.5 g/ha [5] | plant injury at 250 g/ha [5] | pest or weed control at 15.625 g/ha [6] | pest or weed control at 62.5 g/ha [6] | pest or weed control at 250 g/ha [6] | pest or weed control at 15.625 g/ha [7] | pest or weed control at 62.5 g/ha [7] | also measured |
| --- | --- | --- | --- | --- | --- | --- | --- | --- | --- | --- | --- | --- | --- | --- | --- | --- | --- | --- | --- | --- | --- |
| CN1C[C@H](c2ccc(C(F)(F)F)cc2)[C@@H](C(=O)Nc2cnccc2[S+](C)[O-])C1=O (mixture of isomers) [Compound 1751] | 0% | 0% | 10% | 0% | 0% | 0% | 0% | 0% | 0% | 0% | 0% | 10% | 0% | 0% | 0% | 0% | 0% | 0% | 0% | 0% | pest or weed control at 250 g/ha [7]: 10%; pest or weed control at 15.625 g/ha [8]: 0%; pest or weed control at 62.5 g/ha [8]: 0%; pest or weed control at 250 g/ha [8]: 10%; pest or weed control at 15.625 g/ha [9]: 0%; pest or weed control at 62.5 g/ha [9]: 0%; pest or weed control at 250 g/ha [9]: 0%; pest or weed control at 15.625 g/ha [10]: 0%; pest or weed control at 62.5 g/ha [10]: 0%; pest or weed control at 250 g/ha [10]: 10%; plant injury at 15.625 g/ha [11]: 0%; plant injury at 62.5 g/ha [11]: 0%; plant injury at 250 g/ha [11]: 0%; pest or weed control at 15.625 g/ha [12]: 0%; pest or weed control at 62.5 g/ha [12]: 0%; pest or weed control at 250 g/ha [12]: 0% |
| Cc1cc(C2CN(C)C(=O)C2C(=O)Nc2cccc(F)c2F)cc(C(F)(F)F)c1 (stereo not drawn) [Compound 1723] | 0% | 0% | 30% | 0% | 0% | 10% | 0% | 0% | 10% | 60% | 70% | 90% | 0% | 0% | 60% | 10% | 40% | 90% | 20% | 20% | pest or weed control at 250 g/ha [7]: 30%; pest or weed control at 15.625 g/ha [8]: 10%; pest or weed control at 62.5 g/ha [8]: 10%; pest or weed control at 250 g/ha [8]: 20%; pest or weed control at 15.625 g/ha [9]: 30%; pest or weed control at 62.5 g/ha [9]: 70%; pest or weed control at 250 g/ha [9]: 40%; pest or weed control at 15.625 g/ha [10]: 70%; pest or weed control at 62.5 g/ha [10]: 80%; pest or weed control at 250 g/ha [10]: 80%; plant injury at 15.625 g/ha [11]: 30%; plant injury at 62.5 g/ha [11]: 60%; plant injury at 250 g/ha [11]: 70%; pest or weed control at 15.625 g/ha [12]: 30%; pest or weed control at 62.5 g/ha [12]: 80%; pest or weed control at 250 g/ha [12]: 80% |

— patent US12077503B2, “Substituted cyclic amides and their use as herbicides” (FMC CORPORATION, priority 2015, dated 2024)
